Each structure is given as a SMILES string. pEC50: −log10 of the molar value.

The first assay deals with T1, human TREM2 (Homo sapiens, UniProt Q9NZC2).
T1 construct: expressed in transfected cells; host or cells: HEK293T
T1 sequence (Q9NZC2 19-230): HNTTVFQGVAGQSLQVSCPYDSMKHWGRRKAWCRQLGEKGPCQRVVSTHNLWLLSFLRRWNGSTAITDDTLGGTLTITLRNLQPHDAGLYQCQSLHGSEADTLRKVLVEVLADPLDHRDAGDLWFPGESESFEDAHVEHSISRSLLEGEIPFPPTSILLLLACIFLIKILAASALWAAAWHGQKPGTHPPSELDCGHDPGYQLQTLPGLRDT
T1 sequence (O43914 22-113 partner): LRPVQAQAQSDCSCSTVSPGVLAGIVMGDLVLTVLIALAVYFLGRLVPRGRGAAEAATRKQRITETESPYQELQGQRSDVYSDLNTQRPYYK
Briefly: TREM2 agonist potency by cellular phosphorylation of Syk (AlphaLisa) in HEK293T-hTREM2 cells. Conditions: HEK293 cells expressing human TREM2 and DAP12, Table D. Type of assay: cell-based. Put shortly:
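Agonist EC50 from a variable-slope four-parameter fit of % activation, based on AlphaLisa phospho-Syk levels in lysates. Cells: HEK293T-hTREM2 (with DAP12), treated 45 min at room temperature with compound in assay buffer.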
For orientation: Bead proximity is the source of the signal in Alpha formats.
Usually pEC50 stands for −log10 of the EC50, conventionally taken in molar units. Read a low pEC50 as a high EC50. Regarding `COc1cccc([C@H]2C[C@@H](c3nc(-c4ccc(F)cc4F)c4nc(C)c(C)nc4n3)CCO2)n1` [Example 165, 4-(2,4-difluorophenyl)-2-((2R,4S)-2-(6-methoxypyridin-2-yl)tetrahydro-2H-pyran-4-yl)-6,7-dimethylpteridine], the pEC50 is 6.30 to 7.30.

In turn, `Cc1nc2nc(N3C[C@@H](C)O[C@@H](c4cnn(C5CC5)c4)C3)nc(-c3ccnn3C)c2nc1C` [Example 241, (2S,6R)-2-(1-cyclopropyl-1H-pyrazol-4-yl)-4-(6,7-dimethyl-4-(1-methyl-1H-pyrazol-5-yl)pteridin-2-yl)-6-methylmorpholine] had a pEC50 of 6.30 to 7.30.

`Cc1nc2nc(N3CCN(C)[C@@H](c4cnn(C5CC5)c4)C3)nc(-c3ccc(Cl)cc3F)c2nc1C` [Example 206, (S)-4-(4-chloro-2-fluorophenyl)-2-(3-(1-cyclopropyl-1H-pyrazol-4-yl)-4-methylpiperazin-1-yl)-6,7-dimethylpteridine]: the pEC50 was 6.30 to 7.30.

For the compound `Cc1cnc2c(C34CC(C)(C3)C4)nc([C@H]3C[C@@H](C)O[C@@H](c4cnn(C5CC5)c4)C3)nc2n1` [Example 151, 2-((2R,4S,6R)-2-(1-cyclopropyl-1H-pyrazol-4-yl)-6-methyltetrahydro-2H-pyran-4-yl)-7-methyl-4-(3-methylbicyclo[1.1.1]pentan-1-yl)pteridine], the pEC50 is 5.52 to 6.30.

Consider `COc1cccc([C@H]2C[C@@H](c3nc(C45CC(C(F)(F)F)(C4)C5)c4nc(C)c(C)nc4n3)CCO2)n1` [Example 146, 2-[ (2R,4S)-2-(6-methoxy-2-pyridyl)tetrahydropyran-4-yl] - 6,7-dimethyl-4-[3-(trifluoromethyl)-1-bicyclo[1.1.1]pentanyl]pteridine], for which the pEC50 was 6.30 to 7.30.

Consider `Cc1ccc2c(-c3cc(F)c(Cl)cc3F)nc([C@H]3CCO[C@@H](c4cnn(C5CC5)c4)C3)nc2n1` [Example 219, 4-(4-chloro-2,5-difluorophenyl)-2-((2R,4S)-2-(1-cyclopropyl-1H-pyrazol-4-yl)tetrahydro-2H-pyran-4-yl)-7-methylpyrido[2,3-d]pyrimidine], for which the pEC50 is greater than 7.30.

In turn, `Cc1cnc2c(-c3ccc(Cl)cc3F)nc(N3C[C@@H](C)O[C@@H](c4cnn(C5CC5)c4)C3)nc2n1` [Example 117, (2S,6R)-4-(4-(4-chloro-2-fluorophenyl)-7-methylpteridin-2-yl)-2-(1-cyclopropyl-1H-pyrazol-4-yl)-6-methylmorpholine] gave a pEC50 greater than 7.30.

Consider `Cc1cc([C@@H]2C[C@H](c3cc4nc(C)c(C)cc4c(-c4ccc(Cl)cc4F)n3)CCO2)ccn1` [Example 225, 5-(4-chloro-2-fluorophenyl)-2,3-dimethyl-7-((2S,4R)-2-(2-methylpyridin-4-yl)tetrahydro-2H-pyran-4-yl)-1,6-naphthyridine], for which the pEC50 is 5.52 to 6.30.

In turn, `Cc1cnc2c(C34CC(C(F)(F)F)(C3)C4)nc(N3C[C@@H](C)O[C@@H](c4cnn(C5CC5)c4)C3)nc2n1` (racemic) [Example 49, 2-(1-cyclopropyl-1H-pyrazol-4-yl)-6-methyl-4-(7-methyl-4-(3-(trifluoromethyl)bicyclo[1.1.1]pentan-1-yl)pteridin-2-yl)morpholine] showed a pEC50 greater than 7.30.

Compound `CC(=O)OCc1nc2c(-c3ccc(F)cc3F)nc([C@@H]3CCO[C@@H](c4cnn(C5CC5)c4)C3)cc2nc1C` [Example 246, (7-((2R,4R)-2-(1-cyclopropyl-1H-pyrazol-4-yl)tetrahydro-2H-pyran-4-yl)-5-(2,4-difluorophenyl)-2-methylpyrido[3,4-b]pyrazin-3-yl)methylacetate] showed a pEC50 of 4.00 to 5.52.

Consider `Cc1cc([C@@H]2C[C@H](c3cc4nc(C)c(C)cc4c(-c4ccc(F)cc4F)n3)CCO2)ccn1` [Example 226, 5-(2,4-difluorophenyl)-2,3-dimethyl-7-((2S,4R)-2-(2-methylpyridin-4-yl)tetrahydro-2H-pyran-4-yl)-1,6-naphthyridine], for which the pEC50 is 5.52 to 6.30.

The same assay, now with this note: HEK293 cells expressing human TREM2 and DAP12, Table D-2.
For the compound `Cc1nc2nc(N3C[C@@H](C(F)F)O[C@@H](c4cnn(C5CC5)c4)C3)nc(-c3ccc(C(F)(F)F)cc3F)c2nc1C` (stereo in doubt) [Example I-1598, (2S,6S)-2-(1-cyclopropylpyrazol-4-yl)-6-(difluoromethyl)-4-[4-[2-fluoro-4-(trifluoromethyl)phenyl]-6,7-dimethyl-pteridin-2-yl]morpholine], the pEC50 is greater than 7.30.

On to `Cc1nc2nc(N3C[C@@H](C)O[C@@H](c4cnn(C5CC5)c4)C3)nc([C@H]3C[C@H](OC(F)(F)F)C3)c2nc1C` [Example I-1729, (2S,6R)-2-(1-cyclopropylpyrazol-4-yl)-4-[6,7-dimethyl-4-[3-(trifluoromethoxy)cyclobutyl]pteridin-2-yl]-6-methyl-morpholine], for which the pEC50 was greater than 7.30.

Consider `Cc1nc2nc(N3C[C@@H](C)O[C@@H](c4cnn(C5CC5)c4)C3)nc(-c3cc(C(F)F)c(F)cc3F)c2nc1C` (stereo in doubt) [Example I-1706, (2S,6R)-2-(1-cyclopropylpyrazol-4-yl)-4-[4-[5-(difluoromethyl)-2,4-difluoro-phenyl]-6,7-dimethyl-pteridin-2-yl]-6-methyl-morpholine], for which the pEC50 is greater than 7.30.

`Cc1nc2nc(C3CCO[C@@H](c4cnn(C5CC5)c4)C3)nc([C@H]3C[C@@H](C(F)(F)F)C3)c2nc1C` (stereo partly drawn) [Example I-1414, 2-[(2R)-2-(1-cyclopropylpyrazol-4-yl)tetrahydropyran-4-yl]-6,7-dimethyl-4-[3-(trifluoromethyl)cyclobutyl]pteridine] showed a negative-log EC50 (pEC50) greater than 7.30.

Compound `Cc1nc2nc([C@H]3CCO[C@H](c4cnc(C5CC5)o4)C3)nc(-c3ccc(F)cc3F)c2nc1C` [Example I-1698, 2-cyclopropyl-5-[(2S,4S)-4-[4-(2,4-difluorophenyl)-6,7-dimethyl-pteridin-2-yl]tetrahydropyran-2-yl]oxazole] had a pEC50 of 6.30 to 7.30.

For the compound `Cc1nc2nc(N3C[C@@H](c4cnn(C(F)F)c4)O[C@@H](C4CC4)C3)nc(-c3ccc(F)cc3F)c2nc1C` (stereo in doubt) [Example I-1701, (2S,6R)-2-cyclopropyl-6-[1-(difluoromethyl)pyrazol-4-yl]-4-[4-(2,4-difluorophenyl)-6,7-dimethyl-pteridin-2-yl]morpholine], the pEC50 was greater than 7.30.

On to `Cc1nc2nc(N3C[C@@H](C4CC4)O[C@@H](c4cnn(C(F)F)c4)C3)nc(-c3ccc(C(F)(F)F)cc3F)c2nc1C` [Example I-1711, (2R,6S)-2-cyclopropyl-6-[1-(difluoromethyl)pyrazol-4-yl]-4-[4-[2-fluoro-4-(trifluoromethyl)phenyl]-6,7-dimethyl-pteridin-2-yl]morpholine], for which the negative-log EC50 (pEC50) is greater than 7.30.

`Cc1cc([C@H]2CN(c3nc(-c4ccc(Cl)cc4F)c4nc(C)c(C)nc4n3)CCO2)no1` [Example I-1510, (2R)-4-[4-(4-chloro-2-fluoro-phenyl)-6,7-dimethyl-pteridin-2-yl]-2-(5-methylisoxazol-3-yl)morpholine]: the negative logarithm of the EC50 (pEC50) was 6.30 to 7.30.

`Cc1nc2nc(N3CCO[C@H](c4cnn5c4CCC5)C3)nc(-c3ccc(F)cc3F)c2nc1C` [Example I-1529, (2R)-4-[4-(2,4-difluorophenyl)-6,7-dimethyl-pteridin-2-yl]-2-(5,6-dihydro-4H-pyrrolo[1,2-b]pyrazol-3-yl)morpholine] gave a pEC50 of 6.30 to 7.30.

`Cc1nc2nc(N3C[C@@H](C(F)F)O[C@@H](c4cnn(C5CC5)c4)C3)nc(-c3ccc(F)cc3F)c2nc1C` (single isomer, unassigned) [Example I-1467]: the negative logarithm of the EC50 (pEC50) was greater than 7.30.

The compound `Cc1nc2nc([C@H]3CCO[C@@H](c4cnn(C5CC5)c4)C3)nc(-c3ccc(C4CC4)cc3F)c2nc1C` [Example I-1187, 2-((2R,4S)-2-(1-cyclopropyl-1H-pyrazol-4-yl)tetrahydro-2H-pyran-4-yl)-4-(4-cyclopropyl-2-fluorophenyl)-6,7-dimethylpteridine] showed a pEC50 of 6.30 to 7.30.
